Earlier results as cited in patent US20020022057A1, “Oral delivery of pharmaceuticals via encapsulation” (priority 2000, published 2002).

How the values were obtained:
[1] = sublingual versus oral
[2] = applied topically to the skin

skin reactions, including erythema and peeling [2]	Structure (SMILES)	sublingual applications more effective than oral applications [1] [%]
	CC(=O)[C@H]1CC[C@H]2[C@@H]3CCC4=CC(=O)CC[C@]4(C)[C@H]3CC[C@]12C [progesterone]	50
30 % of the subjects	CC(=O)Oc1ccccc1C(=O)O [Aspirin, aspirin]	
